Assay results from patent publication US20260130933A1, “PHARMACEUTICAL COMPOSITION FOR PREVENTION OR TREATMENT OF NEPHROPATHY AND/OR DIABETES MELLITUS, COMPRISING ENAVOGLIFLOZIN” (DAEWOONG PHARMACEUTICAL CO., LTD., priority 2022, published 2026).

Assay: Example 3: phase 3 trial, enavogliflozin 0.3 mg vs dapagliflozin 10 mg once a day for 24 weeks added to metformin and gemigliptin in patients with type 2 diabetes (same endpoints, rescue drug)
Format: in vivo, human
Experimental: 1) when Metformin (≥1,000 mg/Day) was Administered at a Constant Dose for at Least 8 Weeks Prior to Pre-Visit (Pre-Screening) • Metformin (≥1,000 mg/day) and gemigliptin (50 mg/day) were co-administered during the 8-week stabilization period. […] 4) when Metformin (≥1,000 mg/Day) and Gemigliptin (50 mg/Day) were Co-Administered at Constant Doses for at Least 8 Weeks Prior to Pre-Visit (Prescreening) • Without a separate stabilization period, Pre-visit (pre-screening) was Visit 1 (screening).
Subjects who met the inclusion/exclusion criteria continued to receive metformin and gemigliptin while receiving a placebo of the clinical trial drug in a single-blind (subject-blinded) state for a 2-week run-in period.
Here, the randomized subjects were stratified according to the administration therapy (co-administration with two or less agents (one or two agents) or three or more agents) of a conventional hypoglycemic agent (before washout of another hypoglycemic agent) within 24 weeks prior to obtaining written informed consent and by an HbA1c value (<8% or ≥8%) at Visit 1 (screening) measured in the central laboratory.
The randomized subjects were administered two tablets of the clinical trial drug corresponding to each administration group once a day, and then visited the institution at weeks 6, 12, 18, and 24 during the 24-week administration period to conduct efficacy and safety assessments. In addition, during the clinical trial period, they were instructed to exercise regularly and control their diet without changing their daily life patterns.
• 1) Change in HbA1c at week 24 after administration of clinical trial drug compared to Visit 2 (randomization)
• 1) Change in HbA1c at each time point of weeks 6, 12, and 18 after administration of clinical trial drug compared to Visit 2 (randomization) • 2) Change in FPG at each time point of weeks 6, 12, 18, and 24 after administration of clinical trial drug compared to Visit 2 (randomization) • 3) Proportion of subjects achieving HbA1c<7% at each time point of weeks 6, 12, 18, and 24 after administration of clinical trial drug • 4) Proportion of subjects achieving HbA1c<6.5% at each time point of weeks 6, 12, 18, and 24 after administration of clinical trial drug • 5) Proportion of subjects achieving therapeutic response (HbA1c change (HbA1c at Visit 2—HbA1c at each evaluation time point)>0.5% or HbA1c<7% at each evaluation time point compared to Visit 2 (randomization)) at each time point of weeks 6, 12, 18, and 24 after administration of clinical trial drug • 6) Proportion of subjects achieving therapeutic response (HbA1c change (HbA1c at Visit 2—HbA1c at each evaluation time point)>0.7% or HbA1c<7% at each evaluation time point compared to Visit 2 (randomization)) at each time point of weeks 6, 12, 18, and 24 after administration of clinical trial drug • 7) Proportion of subjects achieving therapeutic response (HbA1c change (HbA1c at Visit 2—HbA1c at each evaluation time point)>1% or HbA1c<7% at each evaluation time point compared to Visit 2 (randomization)) at each time point of weeks 6, 12, 18, and 24 after administration of clinical trial drug

[1] = week 6, per-protocol set, enavogliflozin 0.3 mg, dapagliflozin 10 mg
[2] = week 12, modified per-protocol set 1, enavogliflozin 0.3 mg vs dapagliflozin 10 mg
[3] = week 12, modified per-protocol set 1, enavogliflozin 0.3 mg, dapagliflozin 10 mg
[4] = week 12, modified per-protocol set 2

## OC[C@H]1O[C@@H](c2cc(Cc3ccc(C4CC4)cc3)c(Cl)c3c2CCO3)[C@H](O)[C@@H](O)[C@@H]1O [Enavogliflozin, (2S,3R,4R,5S,6R)-2-(7-chloro-6 (4-cyclopropylbenzyl)-2,3-dihydrobenzofuran-4-yl)-6-(hydroxymethyl)tetrahydro-2H-pyran-3,4,5-triol]
[1]
  Fasting C-peptide, Mean: 0.67 ng/mL
  Fasting C-peptide, Median: 0.63 ng/mL
  HbA1c, Mean: 7.06%
  HbA1c, Median: 6.94%
  Subjects achieving HbA1c target of <6.5%, (%): 11.21%
  Subjects achieving HbA1c target of <7%, %: 56.03%
  body weight, Median: 66.80 kg
Week 6, per-protocol set, response 1 = HbA1c change >0.5% or HbA1c <7%, enavogliflozin 0.3 mg, dapagliflozin 10 mg
  Subjects achieving therapeutic glycemic response 1, %: 87.07%
Week 6, per-protocol set, response 2 = HbA1c change >0.7% or HbA1c <7%, enavogliflozin 0.3 mg, dapagliflozin 10 mg
  Subjects achieving therapeutic glycemic response 2, %: 78.45%
Week 6, per-protocol set, response 3 = HbA1c change >1% or HbA1c <7%, enavogliflozin 0.3 mg, dapagliflozin 10 mg
  Subjects achieving therapeutic glycemic response 3, %: 70.69%
Week 12
  FPG change from baseline, LS mean (SE): −27.17(1.54) mg/dL
  HDL-C change from baseline, LS mean (SE): 3.18(0.62) mg/dL
  HOMA-β change from baseline, LS mean (SE): 7.78(1.94)
  HbA1c change from baseline, LS mean (SE): −0.87(0.04) % p
  LDL-C change from baseline, LS mean (SE): 2.95(1.79) mg/dL
  UACR change from baseline, LS mean (SE): −15.12(4.60) g/kg
  UGCR change from baseline, LS mean (SE): 58.21(2.07) mg/mg
  adiponectin change from baseline, LS mean (SE): 0.89(0.34) μg/mL
  body weight change from baseline, LS mean (SE): −2.72(0.20) kg
  diastolic blood pressure change from baseline, LS mean (SE): −4.30(0.69) mmHg
  fasting C-peptide change from baseline, LS mean (SE): −0.09(0.02) ng/ml
  leptin change from baseline, LS mean (SE): −1.97(0.48) ng/ml
  systolic blood pressure change from baseline, LS mean (SE): −6.43(0.88) mmHg
  total cholesterol change from baseline, LS mean (SE): 6.80(2.04) mg/dL
  triglyceride change from baseline, LS mean (SE): −3.23(5.25) mg/dL
Week 12, vs dapagliflozin
  FPG change from baseline, LS mean difference: -2.75 mg/dL
  HDL-C change from baseline, LS mean difference: 0.34 mg/dL
  HOMA-IR change from baseline, LS mean difference: −0.06
  HOMA-β change from baseline, LS mean difference: 2.55
  HbA1c change from baseline, LS mean difference: −0.04 % p
  LDL-C change from baseline, LS mean difference: 0.24 mg/dL
  Odds ratio for achieving HbA1c<6.5%: 1.44
  Odds ratio for achieving HbA1c<7%: 1.20
  Odds ratio, therapeutic response (HbA1c change >0.5% or HbA1c<7%): 1.09
  Odds ratio, therapeutic response (HbA1c change >0.7% or HbA1c<7%): 1.30
  Odds ratio, therapeutic response (HbA1c change >1% or HbA1c<7%): 1.31
  UACR change from baseline, LS mean difference: -3.35 g/kg
  UGCR change from baseline, LS mean difference: 13.37 mg/mg
  adiponectin change from baseline, LS mean difference: 0.19 µg/mL
  body weight change from baseline, LS mean difference: -0.01 kg
  diastolic blood pressure change from baseline, LS mean difference: −2.04 mmHg
  fasting C-peptide change from baseline, LS mean difference: -0.02 ng/mL
  leptin change from baseline, LS mean difference: -0.28 ng/mL
  systolic blood pressure change from baseline, LS mean difference: −1.37 mmHg
  total cholesterol change from baseline, LS mean difference: 1.40 mg/dL
  triglyceride change from baseline, LS mean difference: 8.79 mg/dL
[2]
  Change from baseline in HDL-C, ANCOVA LS mean difference: 0.34 mg/dL
  Change from baseline in LDL-C, ANCOVA LS mean difference: 0.24 mg/dL
  Change from baseline in total cholesterol, ANCOVA LS mean difference: 1.40 mg/dL
  Change from baseline in triglycerides, ANCOVA LS mean difference: 8.79 mg/dL
[3]
  Change from baseline in HDL-C, ANCOVA LS mean: 3.18 mg/dL
  Change from baseline in HDL-C, Mean: 3.17 mg/dL
  Change from baseline in HDL-C, Median: 3.00 mg/dL
  Change from baseline in LDL-C, ANCOVA LS mean: 2.95 mg/dL
  Change from baseline in LDL-C, Mean: 3.76 mg/dL
  Change from baseline in LDL-C, Median: 3.00 mg/dL
  Change from baseline in total cholesterol, ANCOVA LS mean: 6.80 mg/dL
  Change from baseline in total cholesterol, Mean: 7.79 mg/dL
  Change from baseline in total cholesterol, Median: 7.00 mg/dL
  Change from baseline in triglycerides, ANCOVA LS mean: -3.23 mg/dL
  Change from baseline in triglycerides, Mean: 0.59 mg/dL
  Change from baseline in triglycerides, Median: -3.00 mg/dL
  Fasting HDL-C, Mean: 49.21 mg/dL
  Fasting HDL-C, Median: 47.50 mg/dL
  Fasting LDL-C, Mean: 75.11 mg/dL
  Fasting LDL-C, Median: 72.00 mg/dL
  Fasting total cholesterol, Mean: 142.09 mg/dL
  Fasting triglycerides, Mean: 118.98 mg/dL
  Fasting triglycerides, Median: 98.50 mg/dL
  fasting Total cholesterol, Median: 136.00 mg/dL
[4]
  Change from baseline in diastolic blood pressure, ANCOVA LS mean: −4.30 mmHg
  Change from baseline in diastolic blood pressure, LS mean difference (enavogliflozin − dapagliflozin): −2.04 mmHg
